Measured values: patent US20200121579A1, “TOPICAL COMPOSITIONS” (DSM IP ASSETS B.V., priority 2017, published 2020)

Key:
Escherichia coli = experiment: Antimicrobial efficacy in analogy to challenge test NF EN ISO11930, E. coli; format: cell-based; settings: 0.1 wt.-% single active; for Escherichia coli colony count: 24 h after contamination, 22° C., initial count 250000 cfu/ml
Text: The wells are contaminated with either Propionibacterium acnes or Escherichia coli at 2.5*10^5 to 5.6*10^5 cfu/ml to obtain the initial contamination as outlined in table 1.

Propionibacterium acnes = experiment: Antimicrobial efficacy in analogy to challenge test NF EN ISO11930, P. acnes; format: cell-based; settings: 0.1 wt.-% single active; for Propionibacterium acnes colony count: 24 h after contamination, 22° C., initial count 310000 cfu/ml
Text: The wells are contaminated with either Propionibacterium acnes or Escherichia coli at 2.5*10^5 to 5.6*10^5 cfu/ml to obtain the initial contamination as outlined in table 1. […] (The term “Log reduction” is a well-known mathematical term used to show the relative number of cells, germs, microbes, etc., reduced in or on something, e.g. a 2 log reduction means the number of microbes is 100 times smaller and a 3 log reduction means the number of microbes is 1000 times smaller).

| Structure (SMILES) | Δ (change of microorganism count t = 24 h vs t = 0) (Escherichia coli) | Escherichia coli colony count (Escherichia coli) [cfu/ml] | Propionibacterium acnes colony count (Propionibacterium acnes) [cfu/ml] | Log reduction (Propionibacterium acnes; 24 h vs 0 h) |
| --- | --- | --- | --- | --- |
| O=C(CO)[C@H](O)CO (racemic) [erythrulose] | +112% | 530000 | 3000 |  |
| CC(=O)OC/C=C(C)/C=C/C=C(C)/C=C/C1=C(C)CCCC1(C)C [retinyl acetate] | +112% | 530000 | 3000 | 2 |
